Columns and labels:
humans aged 60 to 81 = settings: cited from earlier work
C. elegans [1] = assay: C. elegans lifespan analysis on E. coli plates; format: in vivo, Caenorhabditis elegans; settings: for effect of supplementation on extended lifespan of C. elegans on ubiG mutant bacteria: Q-deficient ubiG bacteria; for effect of supplementation on extended lifespan of C. elegans on ubiG mutant bacteria / effect of supplementation on lifespan of C. elegans on control HT115(DE3) strain: test for toxic effect of supplement; for effect of supplementation on lifespan of C. elegans on control HT115(DE3) strain: control bacteria; for effect of media supplementation on C. elegans lifespan on aroD mutant bacteria: supplement 40 μg/ml (PABA 0.29 mM), glp-4(bn1), 25° C.; for increase in C. elegans lifespan: vs control
Method: Nematode growth media was prepared as described using 2.5 g/l soy peptone (Sigma P6713). Where indicated plates were supplemented with shikimic acid (40 μg/ml), I-phenylalanine, I-tryptophan and I-tyrosine (all at 40 μg/ml), 4-amino benzoic acid (PABA 40 μg/ml=0.29 mM), sodium folate (0.29 mM and 0.58 mM folic acid dissolved in NaOH). For the kanamycin treatment of bacteria, 80 μl of 10 mM kanamycin was added after 24 hours of bacterial growth as described. All compounds were from Sigma-Aldrich.
For all lifespans and unless indicated differently in Supplementary Table 1, survival analyses were performed by the following method: Eggs were prepared from bleaching adults to remove all microbes, and then placed onto plates containing aroD mutant bacteria. Animals were raised at 15° C. until adulthood due to the temperature sensitivity of mutant phenotypes. Gravid adulthoods were used to lay eggs onto fresh aroD mutant plates. At L3/L4 these animals were transferred to 25° C. and larvae of equivalent stage were put onto at least 5 plates of 25 worms for each condition. Animals were transferred to fresh plates after 7 and 14 days and scored for survival every 2-3 days. Lifespan data was analysed by JMP statistical software (SAS). Where relevant, statistical significance was determined using the Log-Rank and Wilcoxon tests of fitting to the Kaplan-Meier survival model.

E. coli [2] = assay: HPLC/MS folate levels in bacteria; format: cell-based; settings: SMX-treated OP50 bacteria, duplicate experiments, FIG. 9B
From the text: Both the aroD mutation and treatment with SMX inhibit folate synthesis in bacteria. […] This folate species is approximately three fold less abundant in the aroD mutant compared to the control strain (in duplicate experiments, FIG. 9A) and at least 10 times less abundant in the SMX-treated OP50 bacteria compared to the untreated control (in duplicate experiments, FIG. 9B).

C. elegans [3] = assay: HPLC/MS folate levels in worms; format: in vivo; settings: worms raised on OP50 bacteria treated with SMX, duplicate experiments, FIG. 9D
From the text: Similar techniques were used to quantify levels of folates in worms, although proteinase K digestion of the worms was used to get a good extraction of folates. The most abundant folate species in C. elegans using this method of detection was 5-methyl tetrahydrofolate pentaglutamate. Worms raised on aroD bacteria had 25 to 30% less of this folate species than worms on the control bacteria (in duplicate experiments, FIG. 9C). Worms raised OP50 bacteria treated with SMX had approximately 75% less folate than worms raised on the control bacteria (in duplicate experiments, FIG. 9D).

E. coli [4] = assay: Effect on E. coli growth (absorbance, relative cell numbers); format: cell-based
Method: The inventors investigated the effect of SMX on E. coli growth. Under the conditions that caused an increase in C. elegans lifespan, they scraped the E. coli from the agar plates used to culture worms after two days of growth and used absorbance to estimate relative cell numbers. 128 μg/ml SMX caused a mean effect of reducing E. coli numbers by approx 11% (+/−5%, standard error, n=4). There was no effect on growth in liquid culture with the same nutrient conditions as used for lifespan analysis (FIG. 10).

yeast = settings: cited from earlier work
worms = settings: cited from earlier work
flies = settings: cited from earlier work
one species of fish = settings: cited from earlier work

**Q.** With `CC(C)(N)C(=O)N[C@H](COCc1ccccc1)C(=O)N1CCC2(CC1)CN(S(C)(=O)=O)c1ccccc12` [MK-677] as the compound, how does the “muscle mass lost due to ageing restored” value (humans aged 60 to 81) read?
**A.** 20%

**Q.** What does the source list for `Nc1ccc(C(=O)O)cc1` [PABA, para-aminobenzoic acid]?
**A.** effect of supplementation on extended lifespan of C. elegans on ubiG mutant bacteria (C. elegans [1]): no effect; effect of supplementation on lifespan of C. elegans on control HT115(DE3) strain (C. elegans [1]): no effect; effect of media supplementation on C. elegans lifespan on aroD mutant bacteria (C. elegans [1]): reversed the lifespan increase completely

**Q.** Which “increase in C. elegans lifespan” value (C. elegans [1]; 16 μg/ml SMX treatment of the bacteria) does the source give for `Cc1cc(NS(=O)(=O)c2ccc(N)cc2)no1` [SMX, sulfamethoxazole] here?
**A.** around 24%

**Q.** And the “increase in C. elegans lifespan” value (C. elegans [1]; 64 μg/ml SMX, not significantly different to 16 μg/ml)?
**A.** 27%

**Q.** And the “increase in C. elegans lifespan” value (C. elegans [1]; 128 μg/ml SMX, significantly different to 16 μg/ml (p<0.05))?
**A.** 33%

**Q.** And the “effect on C. elegans lifespan” value (C. elegans [1]; inhibition of the bacterial folate pathway, FIG. 6)?
**A.** lifespan can be increased

**Q.** And the “formyl tetrahydrofolate triglutamate abundance, decrease vs untreated control” value (E. coli [2])?
**A.** at least 10 times

**Q.** And the “less folate (5-methyl tetrahydrofolate pentaglutamate) in worms vs worms on control bacteria” value (C. elegans [3])?
**A.** approximately 75%

**Q.** What about the “reduction of E. coli numbers” value (E. coli [4]; 128 μg/ml SMX, agar plates, two days of growth, absorbance, +/−5% standard error, n=4) of the same compound?
**A.** approx 11%

**Q.** What about the “effect on E. coli growth in liquid culture” value (E. coli [4]; same nutrient conditions as lifespan analysis, FIG. 10) of the same compound?
**A.** no effect

**Q.** For `Nc1nc2ncc(CNc3ccc(C(=O)N[C@@H](CCC(=O)O)C(=O)O)cc3)nc2c(=O)[nH]1` [folate, folic acid], which “effect of supplementation on extended lifespan of C. elegans on ubiG mutant bacteria” value (C. elegans [1]) is on record?
**A.** no effect

**Q.** What about the “effect of adding folic acid to SMX plates on C. elegans lifespan” value (C. elegans [1]; SMX plates, FIG. 8) of the same compound?
**A.** reverses the effect of SMX

**Q.** And the “effect of supplementation on lifespan of C. elegans on control HT115(DE3) strain” value (C. elegans [1])?
**A.** no effect

**Q.** And the “effect of folate supplementation on C. elegans lifespan on aroD mutant” value (C. elegans [1]; doubled folate concentration (0.58 mM, 2× folate) vs 1× folate, difference not statistically significant)?
**A.** slightly shorter

**Q.** What about the “effect of folate supplementation on C. elegans lifespan extension on aroD mutant” value (C. elegans [1]; same molar concentration as PABA (0.29 mM, 1× folate)) of the same compound?
**A.** reduced the C. elegans lifespan extension substantially but not completely

**Q.** Which extension of lifespan (yeast) does the source give for `Oc1ccc(C=Cc2cc(O)cc(O)c2)cc1` [resveratrol] here?
**A.** up to 60%

**Q.** What about the extension of lifespan (worms) of the same compound?
**A.** up to 30%

**Q.** What about the extension of lifespan (flies) of the same compound?
**A.** up to 30%

**Q.** What about the extension of lifespan (one species of fish) of the same compound?
**A.** ~60%

**Q.** For `O=C(O)C1=C[C@@H](O)[C@@H](O)[C@H](O)C1` [shikimic acid], which “effect of media supplementation on C. elegans lifespan on aroD mutant bacteria” value (C. elegans [1]) is on record?
**A.** revert to normal

**Q.** Which “effect of media supplementation on C. elegans lifespan on aroD mutant bacteria” value (C. elegans [1]) does the source give for `N[C@@H](Cc1c[nH]c2ccccc12)C(=O)O` [tryptophan] here?
**A.** small negative effect
